What was measured:
[1] = Deoxyribose degradation assay for generation of hydroxyl radicals; details: chromium picolinate 1.2 μM; Ferric-EDTA 100 μM; ascorbic acid and hydrogen peroxide 100 μM
Method: The potential of chromium compounds to generate hydroxyl radicals in vitro was assessed by the method reported previously (Halliwell et al. (1987) Anal. Biochem., 165:215-219). Briefly, a reaction mixture containing either chromium picolinate or Cr(pa)3, 2-deoxyribose (4 mM), ascorbic acid (100 μM) and hydrogen peroxide (100 μM) in potassium phosphate buffer (pH 7.4, 10 mM) was incubated at 37° C. for 30 minutes. An aliquot of the mixture was treated with 1% (w/v) thiobarbituric acid and 2.8% (w/v) trichloroacetic acid and heated at 90° C. for 10 minutes, rapidly cooled and the amount of chromogen formed in the sample was measured by its absorption at 532 nm. Ferric-EDTA (100 μM) was used as a positive control.

[2] = system: 3T3-adipocytes; experiment: 2-deoxy-D-[3H] glucose uptake in 3T3-L1 adipocytes; type: cell-based, mouse; details: insulin 6 nM during differentiation
Method: The 3T3-L1-pre-adipocytes were obtained from the American Type Culture Collection and were propagated at 37° C. in DMEM with 10% newborn calf serum plus 50 U/ml penicillin and 50 μg/ml streptomycin in an incubator under a humidified atmosphere of 5% CO2/95% air. Induction of differentiation was done one day post-confluence. Cells were maintained in differentiation medium of the following composition: DMEM, 10% FBS, […] dexamethasone, 0.5 mM 1-isobutyl-3-methylxanthine (IBMX) and ITS for three days. At day 3, the dexamethasone and IBMX were removed with ITS remaining on the cells for an additional two days. Differentiation was allowed to continue in DMEM supplemented with 10% FBS, ITS and the adipocytes were used between day 9 and 14 post-induction. Prior to the cellular assays, cells were serum starved by overnight incubation in DMEM (containing 0.2% serum).
Glucose uptake activity was analyzed by measuring the uptake of 2-deoxy-D-[^3H] glucose as described previously (Sakoda et al. (1999) Diabetes, 48:1365-1371). Briefly, confluent 3T3-L1 adipocytes grown in 6-well plates were washed twice with serum-free DMEM and incubated with 2 ml of the same medium at 37° C. for 2 hours. The cells were washed 3 times with Krebs-Ringer-HEPES (KRH) buffer and incubated with 2 ml KRH buffer at 37° C. for 30 minutes. Insulin (6 nM) and/or Cr(pa)3 (0-25 μM) were then added to adipocytes accompanying the procedure of differentiation. Glucose uptake was initiated by the addition of 0.1 ml KRH buffer and 2-deoxy-D-[^3H] glucose (0.2 μCi/ml) and 5 mM glucose as final concentrations. Glucose uptake was terminated by washing the cells three times with cold PBS. The cells were lysed overnight with 1 ml 0.5M NaOH and 0.1% SDS (w/v). The radioactivity retained by the cell lysates was determined by a scintillation counter (Beckmann LC 6000IC) and normalized to protein amount measured with a Micro BCA Protein Assay Kit (Pierce Chemical, Rockford, Ill.).

Compound	hydroxyl radical production over control / reagent blank [1]	increase in glucose uptake by adipocytes [2]
O=C([O-])CN(CCN(CC(=O)[O-])CC(=O)O)CC(=O)[O-].[Fe+3] [Ferric-EDTA, reference compound]	about 3.5 fold	
insulin		fourfold

— US7271278B2, “Application of chromium-amino acid complexes in the treatment of diabetes and other diseases” (The University of Wyoming, priority 2005, dated 2007)
